In patent publication US11786527B2, “Pharmaceutical composition and preparation method therefor and uses thereof” (WUXI SHUANGLIANG BIOTECHNOLOGY CO., LTD., priority 2018, dated 2023):

How the values were obtained:
[1] = Solubility and solution stability of C-005 and its salts; assay type: physicochemical
WT EGFR = WT EGFR (Homo sapiens, UniProt P00533); conditions: cited from earlier work
[2] = tested on: activated form and resistant mutant form of EGFR; conditions: cited from earlier work

Sequence of WT EGFR (P00533 25-1210): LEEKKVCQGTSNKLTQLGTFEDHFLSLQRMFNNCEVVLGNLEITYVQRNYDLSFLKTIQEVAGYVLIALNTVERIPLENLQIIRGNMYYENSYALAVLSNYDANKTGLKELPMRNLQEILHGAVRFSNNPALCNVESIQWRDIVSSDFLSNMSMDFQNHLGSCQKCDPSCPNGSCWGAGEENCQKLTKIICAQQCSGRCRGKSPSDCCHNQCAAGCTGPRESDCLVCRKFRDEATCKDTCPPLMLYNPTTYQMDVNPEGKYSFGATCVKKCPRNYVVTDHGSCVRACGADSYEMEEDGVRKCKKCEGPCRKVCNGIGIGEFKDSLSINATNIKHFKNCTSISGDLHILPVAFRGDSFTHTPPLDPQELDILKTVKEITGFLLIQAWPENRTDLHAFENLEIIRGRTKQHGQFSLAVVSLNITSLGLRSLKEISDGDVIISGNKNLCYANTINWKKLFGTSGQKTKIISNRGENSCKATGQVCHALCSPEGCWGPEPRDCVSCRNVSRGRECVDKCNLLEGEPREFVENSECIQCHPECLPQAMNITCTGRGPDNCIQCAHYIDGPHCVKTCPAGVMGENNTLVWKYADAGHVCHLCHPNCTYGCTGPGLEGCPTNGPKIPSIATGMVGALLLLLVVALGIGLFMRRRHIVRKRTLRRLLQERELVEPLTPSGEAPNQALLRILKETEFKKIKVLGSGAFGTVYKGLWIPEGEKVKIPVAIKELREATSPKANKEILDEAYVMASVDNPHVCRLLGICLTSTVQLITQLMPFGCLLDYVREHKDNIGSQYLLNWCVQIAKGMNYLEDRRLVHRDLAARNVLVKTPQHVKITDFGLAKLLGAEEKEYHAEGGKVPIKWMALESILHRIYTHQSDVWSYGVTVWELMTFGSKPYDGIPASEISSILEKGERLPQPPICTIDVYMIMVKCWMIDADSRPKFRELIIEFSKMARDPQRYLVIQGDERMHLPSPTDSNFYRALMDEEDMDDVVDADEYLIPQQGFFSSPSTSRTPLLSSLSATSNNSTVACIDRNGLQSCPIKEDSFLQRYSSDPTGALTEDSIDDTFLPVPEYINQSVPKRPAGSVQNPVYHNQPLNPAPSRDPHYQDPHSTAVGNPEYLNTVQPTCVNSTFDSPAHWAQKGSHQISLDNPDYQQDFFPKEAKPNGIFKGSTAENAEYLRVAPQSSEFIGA

Structure (SMILES) | Time period for which the solution is stable and does not precipitate ([1]; solution of the citrate, once formed) | Solubility compared with C-005 in the free-base form ([1]; under the pH conditions in intestine) | Inhibitory activity against WT EGFR (WT EGFR) | pH dependence of solubility (and permeability) [1] | Solubility in simulated gastric fluid compared to the solubility in aqueous solution ([1]; simulated gastric fluid (pH 1.2) vs aqueous solution (pH 7)) | Inhibition of activated form and resistant mutant form of EGFR [2]
C=CC(=O)Nc1cc(Nc2nccc(-c3cn(C)c4cccnc34)n2)c(OC)cc1N(C)CCN(C)C.O=C(O)CC(O)(CC(=O)O)C(=O)O [C-005 citrate, N-(2-((2-(dimethylamino)ethyl)(methyl)amino)-4-methoxy-5-((4-(1-methyl-1H-pyrrolo[3,2-b]pyridin-3-yl)pyrimidin-2-yl)amino)phenyl)acrylamide citrate] | at least 24 hours | significantly higher | – | – | – | –
C=CC(=O)Nc1cc(Nc2nccc(-c3cn(C)c4cccnc34)n2)c(OC)cc1N(C)CCN(C)C [C-005, N-(2-((2-(dimethylamino)ethyl)(methyl)amino)-4-methoxy-5-((4-(1-methyl-1H-pyrrolo[3,2-b]pyridin-3-yl)pyrimidin-2-yl)amino)phenyl)acrylamide] | – | – | relatively low inhibitory activity | significant pH-dependent solubility and permeability | approximately 40 times | inhibit both activated form and resistant mutant form of EGFR
